Measurements: patent US10682371B2, “Small molecule conjugates specifically activated in tumor microenvironment for targeting and use thereof” (priority 2014, dated 2020)
Entries after “also recorded” stand apart in the source; their conditions may differ.

Tests used:
[1] = Maximum tolerated dose (MTD) / acute toxicity by single intravenous injection; settings: female, BALB/C, mouse, in vivo, iv
[2] = tested on: Human prostate cancer PC-3 cells; assay: Tumor treatment in nude mice, PC-3 model (Example 51); type: in vivo
Method: 1) Human prostate cancer PC-3 cells were purchased from American type culture collection (ATCC) and identified according the specification provided by ATCC. Cells were cultivated in DMEM culture solution containing 10% fetal bovine serum at 37° C. and 5% CO2. The cells were passaged for every three days and cells within the 15th passage were used.
2) Production of tumor. 5×10^6PC-3 cells were subcutaneously injected to the back of the nude mice. Mice were randomly grouped after the tumor reached at least 100 mm^3. Then treatment began and the day on which the treatment began was day 1.
According to the clinical application of D1, D2, D3 and D4, drugs were intravenously injected (IV). […]. The control group was administered by physiological saline. Drugs were administered once weekly for four weeks.

[3] = tested on: Mice; assay: Toxicity of Legutaxel injected at tail vein weekly for 3 times, observed over 21 days; type: in vivo
Method: Mice were injected with Legutaxel at tail vein weekly for 3 times. […] Therefore, Legutaxel's dose could at least reach 160 mg/kg/day during treatment.

[4] = tested on: tumor-derived immunosuppressive T cells (T reg: CD4+, CD25+, Foxp3+); CD8 T cells; assay: Immunological stimulation test in mice receiving tumor treatment (T reg, CD8 T cells); type: in vivo
Excerpt: We further studied the immunological stimulation property of Legutaxel. […] On the contrary, the index for tumor-derived immunosuppressive T cells in treatment group by Legutaxel decreased due to targeted chemotherapy (see panels in FIGS. 3A and 3B).

[5] = biological target: T1, asparagine endopeptidase (Homo sapiens, UniProt Q99538)
T1 sequence (Q99538 26-323 limits assumed): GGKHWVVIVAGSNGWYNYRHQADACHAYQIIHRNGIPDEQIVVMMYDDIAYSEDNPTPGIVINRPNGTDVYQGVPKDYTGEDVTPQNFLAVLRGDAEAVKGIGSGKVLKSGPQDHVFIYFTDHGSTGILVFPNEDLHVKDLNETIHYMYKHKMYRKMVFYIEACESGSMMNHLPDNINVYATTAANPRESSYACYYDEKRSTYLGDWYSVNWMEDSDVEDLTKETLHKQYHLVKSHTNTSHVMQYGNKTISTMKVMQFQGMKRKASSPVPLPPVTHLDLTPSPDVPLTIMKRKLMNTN
Method: Reduction of reactant and increase of product were detected by HPLC, thereby comparing the activation efficiency of these compounds.
When R1 is 2-(2-Methoxyethoxy)Acetyl, and R3 is Ala, activation study and efficacy study were carried out by using compounds having different cleavable linker. The study methods are identical to those in Examples 10, 11 and 12. The in vitro activation efficiency was tested by asparagine endopeptidase and the tumor inhibition rate was tested by using human breast cancer MDA-MB231 model.

[6] = Table 48, nude mice, PC-3, IV once weekly for four weeks, D1-D4 25 mg/kg, Docetaxel […], Day 10
[7] = Table 48, nude mice, PC-3, IV once weekly for four weeks, D1-D4 25 mg/kg, Docetaxel […], Day 24

## COCCOCC(=O)N[C@H](C)C(=O)N[C@H](C)C(=O)N[C@H](CC(N)=O)C(=O)Nc1ccc(COC(=O)N2[C@@H]3CN4C5=C(C(=O)C(N)=C(C)C5=O)[C@H](COC(N)=O)[C@]4(OC)[C@@H]32)cc1 [Compound E1, 2-(2-methoxyethoxy) acetyl-L-Ala-L-Ala-L-Asn-4-amino benzyl mitomycin]
[1]
  MTD at 17 days: ~90 mg/kg

## COCCOCC(=O)N[C@H](C)C(=O)N[C@H](C)C(=O)N[C@H](CC(N)=O)C(=O)Nc1ccc(COC(=O)OC(C(=O)OC2C[C@@]3(O)[C@@H](OC(=O)c4ccccc4)[C@H]4[C@](C)(C(=O)[C@H](O)C(=C2C)C3(C)C)[C@@H](O)CC2OC[C@]24OC(C)=O)[C@@H](NC(=O)OC(C)(C)C)c2ccccc2)cc1 (stereo partly drawn) [Compound D1, 2-(2-methoxyethoxy) acetyl-L-Ala-L-Ala-L-Asn-4-amino benzyl-Docetaxel]
[2]; [6]
  Size of tumor (mm^3) Day 10: 86.45 ± 26.42 mm^3
  inhibitory rate on tumor Day 10: 75.0
[2]; [7]
  Size of tumor (mm^3) Day 24: 143.34 ± 44.42 mm^3
  inhibitory rate on tumor Day 24: 80.5
[2]; compared with Docetaxel group and control group
  Inhibition on tumor growth, in words: greatly improved

## COCCOCC(=O)N[C@H](C)C(=O)N[C@H](C)C(=O)N[C@H](CC(N)=O)C(=O)Nc1ccc(COC(=O)OC(C(=O)OC2C[C@@]3(O)C(OC(=O)c4ccccc4)[C@@H]4C5(OC(C)=O)COC5C[C@H](O)[C@@]4(C)C(=O)[C@H](OC(C)=O)C(=C2C)C3(C)C)[C@@H](NC(=O)c2ccccc2)c2ccccc2)cc1 (stereo in doubt) [S1′, 2-(2-methoxyethoxy) acetylamino-L-Ala-L-Ala-L-Asn-p-amino-benzyl-paclitaxel]
[3]; tail vein weekly for 3 times
  Dose that can be reached during treatment: ≥ 160 mg/kg/day
[3]; tail vein weekly for 3 times, 140, 150 and 160 mg/kg/day, observed over 21 days
  Death in toxicity experiments: no death were observed
[4]; lung cancer treatment model
  Toxic CD8 T cells permeated from the tumor tissue: more toxic CD8 T cells
[4]; mice receiving tumor treatment
  Index for tumor-derived immunosuppressive T cells (T reg: CD4+, CD25+, Foxp3+): decreased

## COCCOCCOCCOCCOCCOCC(=O)N[C@H](C)C(=O)N[C@H](C)C(=O)N[C@H](CC(N)=O)C(=O)Nc1ccc(COC(=O)N2[C@H]3[C@@H]2CN2C4=C(C(=O)C(N)=C(C)C4=O)[C@H](COC(N)=O)[C@]32OC)cc1 [Compound E2]
[1]
  MTD at 17 days: ~90 mg/kg

## 4-N—(N—(N—(N-(6-maleimido caproyl)-L-alanyl)-L-alanyl)-L-asparaginyl)-amino benzyl alcohol-MMAE-carbamate [Compound S6]
[5]
  Activation by asparagine endopeptidase, in words: cannot be activated; also recorded: not activated
[5]; different cleavable linkers of MMAE and Doxorubicin, in vitro activation by asparagine endopeptidase
  Cleaving efficiency: 25.6%
